Reference: the supplement of paper PMC11208160

Experiment: recombinant barcode read abundance after kanamycin selection (control-corrected) (log10(CPM+1)); higher = more efficient recombination; sequences stand for … in AGTGCAGAGAAAATCGGCCAGTTTTCTCTGCCTGCAGTCCGCATGCCGT…AGATTTATGCAGCGGACTGCCTTTCTCCCAAAGTGATAAACCGGACAGTATCATGGACCGGTTTTCCCGGTAATCCGTATTTGCAAGGTTGGTTTCACT; site = the 11-nt target
Summary of the method: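 IS621 bridge RNA target-binding loops were paired with targets in a pooled library tested in E. coli. After co-electroporation with a donor plasmid, cells were plated in two replicates on chloramphenicol/ampicillin LB agar (control) and on chloramphenicol/ampicillin/kanamycin carrying 0.1 mM IPTG. Barcodes at recombinant junctions were counted as counts per million, averaged and control-corrected to give recombination efficiency. Values are log10(CPM+1).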
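Also: IS621 recombinase and bridge RNA in Escherichia coli cells.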

Compared with “CGTGGTCCTTGGGTTCTAACCTGTTGCGT (site CGTGGTCCTAG)”, “CGTGGTCCTTGGGTTCTAACCTGTTGCGT (site CGTGGTCCTAT)” is higher in “recombinant barcode read abundance (log10)” value: 0.224 for the first, 1.25 for the second.

Compared with “CGTGGTCCTTGGGTTCTAACCTGTTGCTT (site CGTGGTCCTAA)”, “CGTGGTCCTTGGGTTCTAACCTGTTGCTT (site CGTGGTCCTAC)” is lower in “recombinant barcode read abundance (log10)” value: 0.919 for the first, 0.409 for the second.

“CGTGGTCCTTGGGTTCTAACCTGTTGCTT (site CGTGGTCCTAG)” and “CGTGGTCCTTGGGTTCTAACCTGTTGCTT (site CGTGGTCCTAT)” are within 0.2 log units of each other in “recombinant barcode read abundance (log10)” value: 0.342 for the first, 0.426 for the second.

“CGTTCCACTTGGGTTCTAACCTGTTGCCT (site CGTTCAACTAG)” and “CGTTCCACTTGGGTTCTAACCTGTTGCCT (site CGTTCCACTAG)” are within 0.2 log units of each other in “recombinant barcode read abundance (log10)” value: 0.0139 for the first, 0.0687 for the second.

First: CGTTCCACTTGGGTTCTAACCTGTTGCCT (site CGTTCGACTAG)
Second: CGTTCCACTTGGGTTCTAACCTGTTGCCT (site CGTTCTACTAG)
The “recombinant barcode read abundance (log10)” value of the first is higher: 0.279 for the first, 0 for the second.

Compared with “CTAAACCCTTGGGTTCTAACCTGTTGCGT (site CTAAACCCTAC)”, “CTAAACCCTTGGGTTCTAACCTGTTGCGT (site CTACACCCTTC)” is lower in “recombinant barcode read abundance (log10)” value: 2.85 for the first, 0.0729 for the second.

“CTAAATCCTTGGGTTCTAACCTGTTGCCT (site ATAAATCCTAG)” and “CTAAATCCTTGGGTTCTAACCTGTTGCCT (site CTAAATCCTAG)” are within 0.2 log units of each other in “recombinant barcode read abundance (log10)” value: 0.111 for the first, 0.303 for the second.

“CTAAATCCTTGGGTTCTAACCTGTTGCCT (site GTAAATCCTAG)” and “CTAAATCCTTGGGTTCTAACCTGTTGCCT (site TTAAATCCTAG)” are within 0.2 log units of each other in “recombinant barcode read abundance (log10)” value: 0.0932 for the first, 0.0182 for the second.

Compared with “CTAACCGCTTGGGTTCTAACCTGTTGCCT (site CAAACCGCTAG)”, “CTAACCGCTTGGGTTCTAACCTGTTGCCT (site CCAACCGCTAG)” is lower in “recombinant barcode read abundance (log10)” value: 0.471 for the first, 0.266 for the second.

Compared with “CTAACCGCTTGGGTTCTAACCTGTTGCCT (site CGAACCGCTAG)”, “CTAACCGCTTGGGTTCTAACCTGTTGCCT (site CTAACCGCTAG)” is higher in “recombinant barcode read abundance (log10)” value: 0.0568 for the first, 1.67 for the second.

First: CTAACCTCTTGGGTTCTAACCTGTTGCTT (site CTAACCTCTAA)
Second: CTAACCTCTTGGGTTCTAACCTGTTGCTT (site CTAACCTCTCA)
The “recombinant barcode read abundance (log10)” value of the first is higher: 0.505 for the first, 0.149 for the second.

“CTAACCTCTTGGGTTCTAACCTGTTGCTT (site CTAACCTCTGA)” and “CTAACCTCTTGGGTTCTAACCTGTTGCTT (site CTAACCTCTTA)” are within 0.2 log units of each other in “recombinant barcode read abundance (log10)” value: 0.178 for the first, 0 for the second.

“CTAAGAACTTGGGTTCTAACCTGTTGCAT (site CTAAGAACTAA)” and “CTAAGAACTTGGGTTCTAACCTGTTGCAT (site CTAAGAACTAC)” are within 0.2 log units of each other in “recombinant barcode read abundance (log10)” value: 0.15 for the first, 0.0166 for the second.

Compared with “CTAAGAACTTGGGTTCTAACCTGTTGCAT (site CTAAGAACTAG)”, “CTAAGAACTTGGGTTCTAACCTGTTGCAT (site CTAAGAACTAT)” is higher in “recombinant barcode read abundance (log10)” value: 0.188 for the first, 1.1 for the second.

First: CTAAGAGCTTGGGTTCTAACCTGTTGCCA (site CTAAGAGCTTG)
Second: CTAAGAGCTTGGGTTCTAACCTGTTGCCA (site CTAAGCGCTTG)
The “recombinant barcode read abundance (log10)” value of the first is higher: 0.483 for the first, 0.109 for the second.

“CTAAGAGCTTGGGTTCTAACCTGTTGCCA (site CTAAGGGCTTG)” and “CTAAGAGCTTGGGTTCTAACCTGTTGCCA (site CTAAGTGCTTG)” are within 0.2 log units of each other in “recombinant barcode read abundance (log10)” value: 0.0357 for the first, 0.116 for the second.

“CTAAGCACTTGGGTTCTAACCTGTTGCCG (site CTAAATACTCG)” and “CTAAGCACTTGGGTTCTAACCTGTTGCCG (site CTAAGCACTCG)” are within 0.2 log units of each other in “recombinant barcode read abundance (log10)” value: 0.849 for the first, 0.671 for the second.

“CTAAGGACTTGGGTTCTAACCTGTTGCTT (site CTAAGGACTAA)” and “CTAAGGACTTGGGTTCTAACCTGTTGCTT (site CTAAGGGCTCA)” are within 0.2 log units of each other in “recombinant barcode read abundance (log10)” value: 0.0753 for the first, 0.124 for the second.

“CTAAGGGCTTGGGTTCTAACCTGTTGCCA (site CTAAGAGCTTG)” and “CTAAGGGCTTGGGTTCTAACCTGTTGCCA (site CTAAGCGCTTG)” are within 0.2 log units of each other in “recombinant barcode read abundance (log10)” value: 0.122 for the first, 0.0306 for the second.

First: CTAAGGGCTTGGGTTCTAACCTGTTGCCA (site CTAAGGGCTTG)
Second: CTAAGGGCTTGGGTTCTAACCTGTTGCCA (site CTAAGTGCTTG)
The “recombinant barcode read abundance (log10)” value of the first is higher: 0.591 for the first, 0.233 for the second.

Compared with “CTAAGGGCTTGGGTTCTAACCTGTTGCGG (site CTAAGGGCTCC)”, “CTAAGGGCTTGGGTTCTAACCTGTTGCGG (site CTTAGGGCTCC)” is lower in “recombinant barcode read abundance (log10)” value: 1.94 for the first, 0.303 for the second.

Going from “CTAAGTTCTTGGGTTCTAACCTGTTGCGT (site CTAAGTTCTAC)” to “CTAAGTTCTTGGGTTCTAACCTGTTGCGT (site CTACGTACTAC)”, the “recombinant barcode read abundance (log10)” value falls from 1.77 to 0.0986.

First: CTAATAGCTTGGGTTCTAACCTGTTGCCT (site CTAATAGCTAG)
Second: CTAATAGCTTGGGTTCTAACCTGTTGCCT (site CTAATGGCTAG)
The “recombinant barcode read abundance (log10)” value of the first is higher: 0.901 for the first, 0.0554 for the second.

First: CTAATAGCTTGGGTTCTAACCTGTTGCTA (site CTAATAGCTTA)
Second: CTAATAGCTTGGGTTCTAACCTGTTGCTA (site CTAATATCTTA)
The “recombinant barcode read abundance (log10)” value of the first is lower: 0.162 for the first, 0.438 for the second.

First: CTAATATCTTGGGTTCTAACCTGTTGCTA (site CTAATAGCTTA)
Second: CTAATATCTTGGGTTCTAACCTGTTGCTA (site CTAATATCTTA)
The “recombinant barcode read abundance (log10)” value of the first is lower: 0.0341 for the first, 0.512 for the second.

“CTAATTGCTTGGGTTCTAACCTGTTGCCT (site CCAATTGCTAG)” and “CTAATTGCTTGGGTTCTAACCTGTTGCCT (site CTAATTGCTAG)” are within 0.2 log units of each other in “recombinant barcode read abundance (log10)” value: 0.201 for the first, 0.336 for the second.

First: CTACAACCTTGGGTTCTAACCTGTTGCTT (site CTACAACCTAA)
Second: CTACAACCTTGGGTTCTAACCTGTTGCTT (site CTACACCCTAA)
The “recombinant barcode read abundance (log10)” value of the first is higher: 1.28 for the first, 0.0399 for the second.

“CTACAACCTTGGGTTCTAACCTGTTGCTT (site CTACAGCCTAA)” and “CTACAACCTTGGGTTCTAACCTGTTGCTT (site CTACATCCTAA)” are within 0.2 log units of each other in “recombinant barcode read abundance (log10)” value: 0.109 for the first, 0 for the second.

Going from “CTACCCTCTTGGGTTCTAACCTGTTGCCT (site CTACCCTCTAG)” to “CTACCCTCTTGGGTTCTAACCTGTTGCCT (site TCTAAGACTGC)”, the “recombinant barcode read abundance (log10)” value falls from 2.4 to 0.122.

Compared with “CTACGCACTTGGGTTCTAACCTGTTGCTG (site CTACGAACTCA)”, “CTACGCACTTGGGTTCTAACCTGTTGCTG (site CTACGCACTCA)” is higher in “recombinant barcode read abundance (log10)” value: 0 for the first, 1.68 for the second.

“CTACGCACTTGGGTTCTAACCTGTTGCTG (site CTACGGACTCA)” and “CTACGCACTTGGGTTCTAACCTGTTGCTG (site CTACGTACTCA)” are within 0.2 log units of each other in “recombinant barcode read abundance (log10)” value: 0.112 for the first, 0.156 for the second.

Compared with “CTACGCTCTTGGGTTCTAACCTGTTGCAC (site CTACGATCTGT)”, “CTACGCTCTTGGGTTCTAACCTGTTGCAC (site CTACGCTCTGT)” is higher in “recombinant barcode read abundance (log10)” value: 0.145 for the first, 1.78 for the second.

“CTACGCTCTTGGGTTCTAACCTGTTGCAC (site CTACGGTCTGT)” and “CTACGCTCTTGGGTTCTAACCTGTTGCAC (site CTACGTTCTGT)” are within 0.2 log units of each other in “recombinant barcode read abundance (log10)” value: 0.0577 for the first, 0.0706 for the second.

“CTACGTACTTGGGTTCTAACCTGTTGCGT (site CTAAGTTCTAC)” and “CTACGTACTTGGGTTCTAACCTGTTGCGT (site CTACGTACTAC)” are within 0.2 log units of each other in “recombinant barcode read abundance (log10)” value: 0.0986 for the first, 0.051 for the second.

“CTACGTCCTTGGGTTCTAACCTGTTGCTA (site CTACGTCCTAA)” and “CTACGTCCTTGGGTTCTAACCTGTTGCTA (site CTACGTCCTCA)” are within 0.2 log units of each other in “recombinant barcode read abundance (log10)” value: 0.0386 for the first, 0.0856 for the second.

Compared with “CTACGTCCTTGGGTTCTAACCTGTTGCTA (site CTACGTCCTGA)”, “CTACGTCCTTGGGTTCTAACCTGTTGCTA (site CTACGTCCTTA)” is higher in “recombinant barcode read abundance (log10)” value: 0.425 for the first, 0.795 for the second.

Compared with “CTACTAACTTGGGTTCTAACCTGTTGCGT (site CTACTAACTAA)”, “CTACTAACTTGGGTTCTAACCTGTTGCGT (site CTACTAACTAC)” is higher in “recombinant barcode read abundance (log10)” value: 0.13 for the first, 1.07 for the second.

Going from “CTACTAACTTGGGTTCTAACCTGTTGCGT (site CTACTAACTAG)” to “CTACTAACTTGGGTTCTAACCTGTTGCGT (site CTACTAACTAT)”, the “recombinant barcode read abundance (log10)” value falls from 0.339 to 0.129.

First: CTACTATCTTGGGTTCTAACCTGTTGCGC (site CTACTATCTGC)
Second: CTACTATCTTGGGTTCTAACCTGTTGCGC (site TATAACACTCG)
The “recombinant barcode read abundance (log10)” value of the first is higher: 0.937 for the first, 0.188 for the second.

Compared with “CTACTATCTTGGGTTCTAACCTGTTGCGT (site CTACTATCTAC)”, “CTACTATCTTGGGTTCTAACCTGTTGCGT (site TCGAGTGCTCT)” is lower in “recombinant barcode read abundance (log10)” value: 1.58 for the first, 0.143 for the second.

Going from “CTACTTCCTTGGGTTCTAACCTGTTGCGT (site CTACCTCCTAC)” to “CTACTTCCTTGGGTTCTAACCTGTTGCGT (site CTACTTCCTAC)”, the “recombinant barcode read abundance (log10)” value rises from 0.215 to 1.69.

“CTACTTGCTTGGGTTCTAACCTGTTGCAA (site CTAATTGCTTT)” and “CTACTTGCTTGGGTTCTAACCTGTTGCAA (site CTACTTGCTTT)” are within 0.2 log units of each other in “recombinant barcode read abundance (log10)” value: 0.364 for the first, 0.326 for the second.

First: CTACTTGCTTGGGTTCTAACCTGTTGCAA (site CTAGTTGCTTT)
Second: CTACTTGCTTGGGTTCTAACCTGTTGCAA (site CTATTTGCTTT)
The “recombinant barcode read abundance (log10)” value of the first is lower: 0.239 for the first, 0.592 for the second.
